Where “and” joins values, the source holds several entries; their conditions need not be identical. Identical values can stand only once.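 Step 1: Grow cells in 96-well plates. Step 2: Expose to compound for 48 hours at 5 concentrations. Step 3: Interpolate endpoints linearly; if unreached, use highest concentration. GI50 = concentration required for 50% inhibition of growth. TGI: concentration producing complete growth inhibition.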
Tested on: MDA-MB-468 breast
Experiment: NCI-60 cell line screen, 48 h

SMILES	GI50	TGI [nM]
Cc1ccc2c(c1)ncn2-c1ncnc2c1CC(C)c1ccccc1N2C (stereo unspecified)	49.2 nM	19200
Cc1cc(N2CCCC2)nc(N(CCCNc2ccnc3cc(Cl)ccc23)Cc2ccc3c(c2)OCO3)n1	1180 nM	3550
CC1=C[C@H]2O[C@@H]3C[C@H]4OC(=O)/C=C\C=C\[C@H]([C@@H](C)O)OCC[C@@H](C)[C@H](O)C(=O)OC[C@@]2(CC1)[C@]4(C)[C@]31CO1	3.71 nM and 1.43 nM	2.28
CS(=O)(=O)Nc1cc(-c2ccc3ncnc(Nc4ccc5c(cnn5Cc5ccc(F)cc5)c4)c3c2)cnc1Cl	281 nM	1520
C[C@H](CS(C)(=O)=O)Nc1ncc2cc(Oc3ccc(F)cc3F)c(=O)n(C)c2n1	> 25000 nM	> 25000
COc1cnc2c(c1)C(=O)c1c-2n(CCCN2CCCC2)c(=O)c2cc(Cl)ccc12	63.5 nM	2040
Fc1ccc(Nc2nccc(-c3c(-c4ccc(C(F)(F)F)cc4)nn4ncccc34)n2)cc1F	> 20000 nM	> 25000
C=C(C)CCC(C)N1CCC(N2CCC(C(=O)NCCc3ccccc3)CC2)CC1 (stereo unspecified)	2200 nM	15800
CCCCCc1c(C)[nH]c(/C=C2\N=C(c3ccc[nH]3)C=C2Oc2ccc(Cl)cc2)c1C	24.3 nM	2180
CCOC(=O)N1CCN(S(=O)(=O)c2oc(-c3ccc(Cl)cc3)nc2C#N)CC1	1890 nM	4090
Oc1cc(Cl)ccc1Oc1ccc(Cl)cc1Cl	2420 nM	7240
Fc1ccc(Nc2nc(NCCNc3ccnc4cc(Cl)ccc34)nc(N3CCOCC3)n2)cc1	1960 nM	4830
Cn1cc(-c2ccc3c(c2)CCN3C(=O)Cc2cccc(C(F)(F)F)c2)c2c(N)ncnc21	3710 nM	29200
O=c1oc2ccc(Cl)cc2c(=O)n1-c1ccc(I)cc1F	269 nM	870
Nc1nc(Nc2cccc(F)c2)nc2ccccc12	13600 nM	30800
Clc1ccc2nc(Oc3ccccc3)cnc2c1	> 100000 nM	> 100000
NCc1ccc(-n2c(-c3nonc3N)nc3cnccc32)cc1	2750 nM	11800
COc1ccc(/C=C2\CCCC3=C2NC(C)=NC3c2ccc(OC)c(OC)c2)cc1OC (stereo unspecified)	1290 nM	8180
O=C(/C=C/c1ccccc1Cl)Nc1ncc(Cc2cc(Cl)ccc2Cl)s1	934 nM	11100
CCCCC[C@H]1C/C=C2/C(=O)C(Cl)=C[C@@H]2C/C=C\CCCC(=O)O[C@@H](CCCCC)C/C=C2/C(=O)C(Cl)=C[C@@H]2C/C=C\CCCC(=O)O1	366 nM	862
COc1ccccc1-c1c(C)nn2c(NCc3ccccn3)cc(C)nc12	1660 nM	> 40400
C=C[C@]1(C)C=C2C(=O)[C@@]3(O)OC[C@@]4(CCCC(C)(C)C43O)C2(O)C(O)C1 (stereo partly specified)	1290 nM	3160
CC(C)OC(=O)c1ccc2[nH]c(O)c(C(=Nc3ccc(N(C)C(=O)CN4CCN(C)CC4)cc3)c3ccccc3)c2c1	964 nM	2460
